Reference: US20250304643A1, “PEPTIDE DUAL AGONISTS OF GIPR AND GLP2R” (BAINAN BIOTECH APS, priority 2021, published 2025)

Columns and labels:
Format in all cases: cell-based
[1] = biological target: T1, human GLP-2R (Homo sapiens, UniProt O95838); assay: HitHunter cAMP assay in transiently transfected COS-7 cells, human GLP-2R; settings: Emax normalized to highest concentration of endogenous ligand; Table 2;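 further: cells kept 30 min at 37 °C in buffer with 1 mM IBMX, then given ligand for another 30 min at 37 °C before cAMP readout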
T1 construct: host or cells: COS-7
T1 sequence (O95838 1-553): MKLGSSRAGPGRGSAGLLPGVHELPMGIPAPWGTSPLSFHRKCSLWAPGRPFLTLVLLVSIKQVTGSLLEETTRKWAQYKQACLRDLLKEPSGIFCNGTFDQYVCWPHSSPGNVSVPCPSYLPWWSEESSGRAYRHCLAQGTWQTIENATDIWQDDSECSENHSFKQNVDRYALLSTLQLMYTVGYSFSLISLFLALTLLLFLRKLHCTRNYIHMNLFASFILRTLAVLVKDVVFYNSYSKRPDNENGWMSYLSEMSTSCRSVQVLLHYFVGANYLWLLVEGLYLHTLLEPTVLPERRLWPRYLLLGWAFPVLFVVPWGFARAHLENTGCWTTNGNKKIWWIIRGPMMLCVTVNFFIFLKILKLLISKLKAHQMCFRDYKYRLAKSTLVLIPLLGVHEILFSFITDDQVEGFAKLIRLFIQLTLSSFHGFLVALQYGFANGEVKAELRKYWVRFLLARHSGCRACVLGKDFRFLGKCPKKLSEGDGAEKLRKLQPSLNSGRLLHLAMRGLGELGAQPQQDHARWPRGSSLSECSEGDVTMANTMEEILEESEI
Procedure: COS-7 cells were cultured at 10% CO2 and 37° C. in Dulbecco's Modified Eagle Medium (DMEM) 1885 supplemented with 10% fetal bovine serum (FBS), 2 mM glutamine, 180 units/ml penicillin, and 45 g/ml streptomycin.
The next day the assay was initiated by washing with HEPES buffered saline (HBS) and followed by an incubation step with assay buffer (HBS added 1 mM isobutyl-1-methylxanthine (IBMX)) for 30 min at 37° C. The ligands were then added and incubated for an additional 30 min at 37° C. After ligand incubation, the HitHunter® CAMP assay (Eurofins DiscoverX, Fremont, 150 USA) was carried out according to the manufacturer's instructions. Luminescence was measured by PerkinElmer™ EnVision 2014 Multilabel Reader (PerkinElmer, Waltham, MA). The potencies (EC50 values) were determined by nonlinear regression using GraphPad Prism 9 (San Diego, California, USA). Sigmoid curves were fitted logistically. The efficacies (Emax values) were determined by normalization to the highest concentration applied of the endogenous ligand for each receptor.

[2] = biological target: T2, human GLP-1R (Homo sapiens, UniProt P43220); assay: HitHunter cAMP assay in transiently transfected COS-7 cells, human GLP-1R; settings: for Efficacy GLP-1R: Emax normalized to highest concentration of endogenous ligand, Table 3; for activation of hGLP-1R: fatty acid at C-terminal residue or position 16
T2 construct: host or cells: COS-7
T2 sequence (P43220 24-463): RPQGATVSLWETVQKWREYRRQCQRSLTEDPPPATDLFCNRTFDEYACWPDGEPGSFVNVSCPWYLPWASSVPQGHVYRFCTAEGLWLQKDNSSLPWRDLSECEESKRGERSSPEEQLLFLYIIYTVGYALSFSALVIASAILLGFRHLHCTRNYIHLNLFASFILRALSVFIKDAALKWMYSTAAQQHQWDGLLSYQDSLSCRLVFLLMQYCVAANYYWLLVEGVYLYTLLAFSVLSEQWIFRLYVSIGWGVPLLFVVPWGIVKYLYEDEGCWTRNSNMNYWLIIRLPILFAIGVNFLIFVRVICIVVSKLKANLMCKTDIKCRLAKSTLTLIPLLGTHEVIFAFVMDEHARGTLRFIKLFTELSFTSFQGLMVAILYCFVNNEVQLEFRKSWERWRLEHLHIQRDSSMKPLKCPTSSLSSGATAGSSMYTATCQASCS
Procedure: The next day the assay was initiated by washing with HEPES buffered saline (HBS) and followed by an incubation step with assay buffer (HBS added 1 mM isobutyl-1-methylxanthine (IBMX)) for 30 min at 37° C. The ligands were then added and incubated for an additional 30 min at 37° C. After ligand incubation, the HitHunter® CAMP assay (Eurofins DiscoverX, Fremont, […] USA) was carried out according to the manufacturer's instructions. Luminescence was measured by PerkinElmer™ EnVision 2014 Multilabel Reader (PerkinElmer, Waltham, MA). The potencies (EC50 values) were determined by nonlinear regression using GraphPad Prism 9 (San Diego, California, USA). Sigmoid curves were fitted logistically. The efficacies (Emax values) were determined by normalization to the highest concentration applied of the endogenous ligand for each receptor.

[3] = biological target: T3, human GIPR (Homo sapiens, UniProt P48546); parameters: host or cells: COS-7; settings: Emax normalized to highest concentration of endogenous ligand; Table 2
T3 sequence (P48546 22-466): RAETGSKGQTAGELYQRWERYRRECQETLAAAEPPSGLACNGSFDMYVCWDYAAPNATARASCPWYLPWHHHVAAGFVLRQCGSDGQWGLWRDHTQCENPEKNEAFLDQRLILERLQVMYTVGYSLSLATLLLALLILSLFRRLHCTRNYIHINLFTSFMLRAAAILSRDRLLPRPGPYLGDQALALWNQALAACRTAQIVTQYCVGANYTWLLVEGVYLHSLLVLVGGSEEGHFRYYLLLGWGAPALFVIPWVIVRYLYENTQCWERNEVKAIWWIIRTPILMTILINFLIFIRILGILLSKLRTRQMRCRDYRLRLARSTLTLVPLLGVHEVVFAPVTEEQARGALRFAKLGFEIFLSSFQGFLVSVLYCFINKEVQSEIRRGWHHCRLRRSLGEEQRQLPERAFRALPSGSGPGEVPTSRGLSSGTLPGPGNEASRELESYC

Row | Substance | Efficacy GLP-2R [1] | Efficacy GLP-1R [2] | Efficacy GIPR [3] | activation of hGLP-1R [2]
1 | (C10-diacid)H-Aib-DGTFISDYST-Aib-LDNLAARDFINWLIQTKITK-OH [Compound no. 18] | 90 | 10 | 77 | –
2 | (C16)H-Aib-DGTFISDYST-Aib-LDNLAARDFINWLIQTKITK-OH [Compound no. 5] | 109 | 6 | 111 | –
3 | (C16)H-Aib-DGTFISDYSTILD-Aib-LAARDFINWLIQTKITK-OH [Compound no. 6] | 91 | 34 | 108 | –
4 | (C16)H-Aib-DGTFISDYSTILDNLAARDFIEWLIQTKIT-OH [Compound no. 8] | 106 | 19 | 108 | –
5 | (C16)H-Aib-DGTFISDYSTILDNLAARDFIEWLIQTKITK-OH [Compound no. 7] | 101 | 13 | 114 | –
6 | (C16)HADGTFISDYSTILDAibLAARDFINWLIQTKITKNDWKHNITQ [Compound no. 16] | 64 | 2 | 99 | –
7 | (C16)HADGTFISDYSTILDELAARDFINWLIQTKITKNDWKHNITQ [Compound no. 48] | 69 | – | 112 | –
8 | (C16)HADGTFISDYSTILDNLAAKDFINWLIQTKITK [Compound no. 45] | 59 | – | 91 | –
9 | (C16)HADGTFISDYSTILDNLAARDFIEWLIQTKITKNDWKHNITQ [Compound no. 50] | 70 | – | 101 | –
10 | (C16)HADGTFISDYSTILDNLAARDFINWLIATKITKNDWKHNITQ [Compound no. 52] | 68 | – | – | –
11 | (C16)HADGTFISDYSTILDNLAARDFINWLIETKITKNDWKHNITQ [Compound no. 51] | 66 | – | 104 | –
12 | (C16)HADGTFISDYSTILDNLAARDFINWLIQTKIT [Compound no. 2] | 59 | – | 80 | –
13 | (C16)HADGTFISDYSTILDNLAARDFINWLIQTKITKAEWKHAITQ [Compound no. 49] | 92 | – | 105 | –
14 | (C16)HADGTFISDYSTILDNLAARDFINWLLAQKITK [Compound no. 46] | 82 | – | 98 | –
15 | (C16)HADGTFISDYSTILELLAARDFINWLIQTKITKNDWKHNITQ [Compound no. 15] | 70 | 0 | 106 | –
16 | (C16-diacid)H-Aib-DGTFISDYST-Aib-LDALAARDFIEWLIQTKITK-OH [Compound no. 20] | 88 | – | 93 | –
17 | (C16-diacid)H-Aib-DGTFISDYST-Aib-LDKLAARDFIEWLIQTKITK-OH [Compound no. 22] | 95 | – | 91 | –
18 | (C16-diacid)H-Aib-DGTFISDYST-Aib-LDKLAARDFINWLIETKITK-OH [Compound no. 23] | 86 | – | 107 | –
19 | (C16-diacid)H-Aib-DGTFISDYST-Aib-LDNLAAKDFINWLIQTKITKNDWKHNITQ-OH [Compound no. 42] | 93 | – | – | –

Row | Substance | Efficacy GLP-2R [1] | Efficacy GLP-1R [2] | Efficacy GIPR [3] | activation of hGLP-1R [2]
20 | (C16-diacid)H-Aib-DGTFISDYST-Aib-LDNLAARDFINWLIQTKITK-OH [Compound no. 17] | 90 | 5 | 98 | –
21 | (C16-diacid)H-Aib-DGTFISDYST-Aib-LDNLAARDFINWLIQTKITKNDWKHNITQ-OH [Compound no. 40] | 96 | – | 94 | –
22 | (C16-diacid)H-Aib-EGTFISDYST-Aib-LDALAARDFINWLIQTKITKNDWKHNITQ-OH [Compound no. 41] | 74 | 14 | 91 | –
23 | (C16-diacid)H-Aib-EGTFISDYST-Aib-LDKLAARDFINWLIQTKITK-OH [Compound no. 21] | 58 | 10 | 86 | –
24 | (C16-diacid)H-Aib-EGTFISDYST-Aib-LDNLAAKDFINWLIQTKITKNDWKHNITQ-OH [Compound no. 43] | 73 | – | 101 | –
25 | (C16-diacid)H-Aib-EGTFISDYST-Aib-LDNLAARDFINWLIQTKITK-OH [Compound no. 19] | 81 | – | 98 | –
26 | (C16-diacid)HADGTFISDYSTAibLDNLAARDFINWLIQTKITKNDWKHNITQ [Compound no. 39] | 78 | – | 99 | –
27 | Ac-H-Aib-DGTFISDY-K(γGlu-C16)-T-Aib-LDNLAARDFINWLIQTKITK-OH [Compound no. 34] | 103 | – | 75 | –
28 | Ac-H-Aib-DGTFISDY-K(γGlu-C16)-T-Aib-LDNLAARDFINWLIQTKITKNDWKHNITQ-OH [Compound no. 38] | 89 | – | 81 | –
29 | H-Aib-DG-K(γGlu- γGlu-C10)-FISDYSTILDNLAARDFINWLIQTKITK-OH [Compound no. 26] | 91 | 14 | 80 | –
30 | H-Aib-DG-K(γGlu- γGlu-C16)-FISDYST-Aib-LDNLAARDFINWLIQTKITK-OH [Compound no. 28] | 99 | 14 | 105 | –
31 | H-Aib-DGTF-K(γGlu-C16)-SDYSTILDNLAARDFINWLIQTKITK-OH [Compound no. 10] | 23 | 10 | 102 | –
32 | H-Aib-DGTFISDY-K(γGlu-C10)-T-Aib-LDNLAARDFINWLIQTKITD-OH [Compound no. 30] | 81 | 10 | 85 | –
33 | H-Aib-DGTFISDY-K(γGlu-C16)-TILDNLAARDFINWLIETKITK-OH [Compound no. 32] | 84 | – | 89 | –
34 | HADGTFISDYSTAibLDK(γGlu-C18-diacid) LAARDFINWLIQTKGKK [Compound no. 62, reference compound] | – | – | – | capable of activating hGLP-1R
35 | HADGTFISDYSTAibLDNLAARDFINWLIQTKGKKK(γGlu-C18-diacid) [Compound no. 61, reference compound] | – | – | – | capable of activating hGLP-1R
36 | HADGTFISDYSTILDK(γGlu-C18-diacid) LAARDFINWLIQTKGKK [Compound no. 64, reference compound] | – | – | – | capable of activating hGLP-1R
37 | HADGTFISDYSTILDNLAARDFINWLIQTKGKK(γGlu-C18-diacid) [Compound no. 60, reference compound] | – | – | – | capable of activating hGLP-1R
